Data: US20160193299A1, “MODIFIED NUCLEOSIDE, NUCLEOTIDE, AND NUCLEIC ACID COMPOSITIONS” (Moderna Therapeutics, Inc., priority 2011, published 2016)

Experiments:
[1] = test system: IFN-alpha; assay: Example 45 cytokine study in PBMC, IFN-alpha ELISA; format: cell-based, human; conditions: for IFN-alpha signal - 2 donor average: PBMC
Experimental: (§1) The plates were then incubated at 37 C.
(§2) Each condition was done in duplicate.
(§3) Shown in Tables 69 and 70 are the average from 2 separate PBMC donors of the G-CSF and IFN-alpha production over time as measured by specific ELISA.

[2] = test system: TNF-alpha; assay: Example 46A percent-modified G-CSF mRNA transfected in PBMC, TNF-alpha ELISA; format: cell-based, human
Experimental: The supernatant was harvested and run by ELISA 22 hours after transfection to determine the protein expression.

[3] = test system: Female BALB/C mice; assay: In vivo detection of innate immune response: human G-CSF and mouse IFN-alpha in serum after I.M. injection; conditions: I.M., 8 hours after dosing
Experimental: Blood is collected at 8 hours after dosing and using ELISA the protein levels of G-CSF and interferon-alpha (IFN-alpha) is determined by ELISA and are shown in Table 81.

[4] = test system: mice; assay: In vivo cytokine expression study (serum IFN-alpha); conditions: mouse serum; I.M. 200 ug mRNA; after 8 hours
Experimental: After 8 hours serum was collected from the mice and analyzed for interferon-alpha (IFN-alpha) expression.

[5] = test system: female Sprague Dawley rats; assay: In vivo delivery of modified RNA: G-CSF protein in rat serum (I.M.); conditions: I.M. 400 ug in 100 ul, 5% sucrose, 8 hours after injection
Experimental: Protein production of modified mRNA was evaluated by delivering modified G-CSF mRNA or modified Factor IX mRNA to female Sprague Dawley rats (n=6). […] Blood was collected 8 hours after injection and the G-CSF protein level in serum was measured by ELISA.

[6] = test system: Factor IX protein; assay: Factor IX mRNA transfected in serum-free media (2D HPLC / MALDI peptide detection); format: cell-based, Human; conditions: 8 peptides detected, 7 unique to Factor IX
Text: The cell culture supernatant was collected and subjected to trypsin digestion before undergoing 2-dimensional HPLC separation of the peptides. Matrix-assisted laser desorption/ionization was used to detect the peptides. 8 peptides were detected and 7 of the detected peptides are unique to Factor IX.

[7] = test system: human G-CSF; assay: Example 32C human G-CSF modified RNA lipoplex vs saline comparison IM/SC, serum G-CSF ELISA; format: in vivo, C57/BL6 mice; conditions: mouse serum, I.M. or S.C., 13 hours
Experimental: A formulation containing 100 μg of either modified human G-CSF mRNA lipoplexed with 30% by volume of RNAIMAX™ with a 5-methylcytosine (5mc) and a pseudouridine (ψ) modification (G-CSF-Gen1-Lipoplex), modified human G-CSF mRNA with a 5mc and w modification in saline (G-CSF-Gen1-Saline), modified human G-CSF mRNA with a N1-5-methylcytosine (N1-5mc) and a w modification lipoplexed with 30% by volume of RNAIMAX™ (G-CSF-Gen2-Lipoplex), modified human G-CSF mRNA with a N1-5mc and ψ modification in saline (G-CSF-Gen2-Saline), modified luciferase with a 5mc and ψ modification lipoplexed with 30% by volume of RNAIMAX™ (Luc-Lipoplex), or modified luciferase mRNA with a a 5mc and ψ modification in saline (Luc-Saline) was delivered intramuscularly (I.M.) or subcutaneously (S.C.) and a control group for each method of administration was giving a dose of 80 uL of the formulation buffer (F. Buffer) to C57/BL6 mice. 13 hours post injection serum and tissue from the site of injection were collected from each mouse and analyzed by G-CSF ELISA to compare human G-CSF protein levels. The results of the human G-CSF protein in mouse serum from the intramuscular administration and the subcutaneous administration results are shown in Table 55.

[8] = test system: neutrophil count; assay: Example 40 multi-site IM and SC administration of G-CSF mRNA, neutrophil count; format: in vivo; conditions: mice, day 3
Experimental: Injection of four doses or 2×50 ug (two sites) daily for three days (24 hrs interval) was performed. The fourth dose was administered 6 hrs before blood collection and CBC analysis. […] The mice were bled at 72 hours after the first mRNA injection (6 hours after the last mRNA dose) to determine the effect of mRNA-encoded human G-CSF on the neutrophil count. The dosing regimen is shown in Table 63 as are the resulting neutrophil counts (thousands/uL). In Table 63, an asterisks (*) indicate statistical significance at p<0.05.

[9] = test system: human PBMC; assay: Example 45 cytokine study in PBMC, G-CSF production ELISA; format: cell-based; conditions: Lipofectamine 2000
Experimental: as §1, §2, §3
In the G-CSF ELISA, background signal from the Lipofectamine 2000 untreated condition was subtracted at each timepoint. […] Many other cytokines were not affected by either modification.

CCOCc1nc2c(N)nc3ccccc3c2n1CC(C)(C)O [Formulation R-848, reference compound]
IFN-alpha signal - 2 donor average ([1]; 2 Hr): 39.1 pg/mL | IFN-alpha signal - 2 donor average ([1]; 4 Hr): 151.3 pg/mL | IFN-alpha signal - 2 donor average ([1]; 8 Hr): 278.4 pg/mL | IFN-alpha signal - 2 donor average ([1]; 20 Hr): 362.2 pg/mL | IFN-alpha signal - 2 donor average ([1]; 44 Hr): 208.1 pg/mL | TNF-alpha Expression [2]: 256.6 pg/mL | G-CSF protein ([3]; human G-CSF in mouse serum, 200 ug/mouse mRNA (R848 75 ug) in 5% sucrose): 3.4 pg/mL | IFN-alpha expression ([3]; mouse IFN-alpha in serum, 200 ug/mouse mRNA (R848 75 ug)): 40.97 pg/mL | IFN-alpha [4]: 40.971 pg/mL

Factor IX Gen 1: Factor IX mRNA SEQ ID NO: 10, Cap1, fully modified with 5-methylcytosine and pseudouridine
G-CSF protein [5]: 2.25 pg/mL | expression of Factor IX protein [6]: able to express full-length Factor IX protein

B1: Gen2 G-CSF mRNA: human G-CSF mRNA SEQ ID NO: 6 fully modified with 5-methylcytosine and N1-methylpseudouridine (nucleic acid, listed as Homo sapiens)
chain: GGGAAAUAAGAGAGAAAAGAAGAGUAAGAAGAAAUAUAAGAGCCACCAUGGCCGGUCCCGCGACCCAAAGCCCCAUGAAACUUAUGGCCCUGCAGUUGCUGCUUUGGCACUCGGCCCUCUGGACAGUCCAAGAAGCGACUCCUCUCGGACCUGCCUCAUCGUUGCCGCAGUCAUUCCUUUUGAAGUGUCUGGAGCAGGUGCGAAAGAUUCAGGGCGAUGGAGCCGCACUCCAAGAGAAGCUCUGCGCGACAUACAAACUUUGCCAUCCCGAGGAGCUCGUACUGCUCGGGCACAGCUUGGGGAUUCCCUGGGCUCCUCUCUCGUCCUGUCCGUCGCAGGCUUUGCAGUUGGCAGGGUGCCUUUCCCAGCUCCACUCCGGUUUGUUCUUGUAUCAGGGACUGCUGCAAGCCCUUGAGGGAAUCUCGCCAGAAUUGGGCCCGACGCUGGACACGUUGCAGCUCGACGUGGCGGAUUUCGCAACAACCAUCUGGCAGCAGAUGGAGGAACUGGGGAUGGCACCCGCGCUGCAGCCCACGCAGGGGGCAAUGCCGGCCUUUGCGUCCGCGUUUCAGCGCAGGGCGGGUGGAGUCCUCGUAGCGAGCCACCUUCAAUCAUUUUUGGAAGUCUCGUACCGGGUGCUGAGACAUCUUGCGCAGCCGUGAAGCGCUGCCUUCUGCGGGGCUUGCCUUCUGGCCAUGCCCUUCUUCUCUCCCUUGCACCUGUACCUCUUGGUCUUUGAAUAAAGCCUGAGUAGGAAG
modifications: 5mC/N1-methylpseudouridine modified
human G-CSF protein production relative to 5-methylcytosine/pseudouridine modified mRNA [7]: increased human G-CSF protein production | increase in neutrophil count above control ([8]; intramuscular): two fold increase | increase in neutrophil count above control ([8]; subcutaneous): two fold increase | G-CSF production [9]: highest level of G-CSF production | innate immune recognition, cytokine production (IFN-alpha and others) ([1]; human PBMC, Lipofectamine 2000): did not significantly increase cytokines
